{"source": "paper PMC6478823", "about": "“A suite of phenotypic assays to ensure pipeline diversity when prioritizing drug-like Cryptosporidium growth inhibitors” (Nature Communications, 2019)", "key": {"Cryptosporidium [1]": {"tested_on": "Cryptosporidium", "parameters": "method as in Lee, et al. 2018. AAC", "conditions": "ref Lee, et al. 2018. AAC; cited from earlier work"}, "C. parvum [2]": {"tested_on": "C. parvum", "experiment": "NOD SCID gamma (NSG) mouse model of chronic cryptosporidiosis", "format": "in vivo", "conditions": "oral gavage, 4-day treatment course", "source_text": "It is feasible that Cryptosporidium is most susceptible to drug treatments that show the greatest activity in only one of the mode of action assays described above, which would complicate use of these assays for maintaining a diverse anticryptosporidial pipeline. Therefore, to further test the strategy of ensuring a mechanistically diverse pipeline of anticryptosporidials, it was critical to know that compounds belonging to different phenotypic effect clusters (as in Fig. 7) could work in vivo. For this, thirty-one of the thirty-nine compounds were tested in a mouse model of cryptosporidiosis. There is considerable variability in the in vivo efficacy of anticryptosporidials tested in different mouse models[15],[34]–[39], and it remains unknown which animal models will best predict drug efficacy in humans. […] The piperazine-based compound MMV665917, however, is efficacious in both the acute IFN-γ KO and chronic NSG mouse models. […] Given that the goal of this study was to determine if compounds belonging to different phenotypic clusters might be active in vivo, we assessed in vivo efficacy using the stringent NSG mouse model.\nThe NOD SCID gamma mouse model for treatment of established cryptosporidiosis was reported previously. […] Oocyst shedding in feces was monitored by qPCR for 18s rRNA gene with the primers Cp18s forward and Cp18s reverse. […]"}, "Cryptosporidium [3]": {"tested_on": "Cryptosporidium", "parameters": "method as in Downey, et al. 2008. AAC.", "conditions": "ref Downey, et al. 2008. AAC.; cited from earlier work"}, "C. parvum [4]": {"tested_on": "C. parvum", "experiment": "Time-lapse microscopy of live C. parvum egress", "conditions": "2 × EC90 (1.3 µM total)", "method": "Cells were then imaged live with 5 min intervals using Nomarski optics and a ×60 oil objective (1.4 NA). […] After 3 h, cells were gently washed with warm complete media to remove oocyst shells before adding either compound or DMSO. Tiled 2 × 2 images were taken live at 20 min intervals using a ×40 dry objective (0.7 NA)."}, "C. parvum [5]": {"tested_on": "C. parvum", "experiment": "Time course infection experiment (PV numbers versus time)", "method": "For quantification of parasitophorous vacuoles over time, HCT-8 cells were grown to greater than 90% confluence in 384-well plates and infected with 11,000 oocysts after triggering excystation."}, "Cryptosporidium [6]": {"tested_on": "Cryptosporidium", "parameters": "method as in earlier work", "conditions": "ref Castellanos-Gonzalez, et al. 2013. JID. and Love, et al. 2017. PLoS NTD.; cited from earlier work"}}, "data": [{"smiles": "CCOc1ccc2cc(-c3nn(CC4CCN(C)CC4)c4ncnc(N)c34)ccc2n1", "note": "[BKI-1369]", "values": [{"measurement": "anticryptosporidial efficacy in gnotobiotic piglet model", "setting": "Cryptosporidium [1]", "value": "previously demonstrated anticryptosporidial efficacy"}]}, {"smiles": "CC(=O)Oc1ccccc1C(=O)Nc1ncc([N+](=O)[O-])s1", "note": "[Nitazoxanide]", "values": [{"measurement": "efficacy in the NSG mouse model (reduction in fecal oocyst shedding)", "setting": "C. parvum [2]", "value": "no effect"}]}, {"smiles": "Cc1cc(/C=C/c2ccc3cc(N(C)C)ccc3[n+]2C)c(C)n1-c1ccccc1", "note": "[Pyrvinium pamoate]", "values": [{"measurement": "anticryptosporidial activity in neonatal mouse model", "setting": "Cryptosporidium [3]", "value": "previously demonstrated anticryptosporidial activity"}]}, {"smiles": "Cc1cccc(-n2ncc3c(O)nc(-n4nc(C)cc4NC(=O)c4cc5ccccc5o4)nc32)c1", "note": "[C-1]", "values": [{"measurement": "parasite egress during live microscopy", "setting": "C. parvum [4]", "value": "inhibited parasite egress"}, {"measurement": "Parasites Detected, Average", "setting": "C. parvum [5]; C1 at 2*EC90, 6 h post-infection", "value": 1992}, {"measurement": "Parasites Detected, Average", "setting": "C. parvum [5]; C1 at 2*EC90, 9.5 h post-infection", "value": 2503}, {"measurement": "Parasites Detected, Average", "setting": "C. parvum [5]; C1 at 2*EC90, 12 h post-infection", "value": 1773}, {"measurement": "Parasites Detected, Average", "setting": "C. parvum [5]; C1 at 2*EC90, 13.5 h post-infection", "value": 1847}, {"measurement": "Parasites Detected, Average", "setting": "C. parvum [5]; C1 at 2*EC90, 15 h post-infection", "value": 879}, {"measurement": "Parasites Detected, Average", "setting": "C. parvum [5]; C1 at 2*EC90, 18 h post-infection", "value": 1045}, {"measurement": "Parasites Detected, Average", "setting": "C. parvum [5]; C1 at 2*EC90, 19.5 h post-infection", "value": 1400}, {"measurement": "Parasites Detected, Average", "setting": "C. parvum [5]; C1 at 2*EC90, 22.5 h post-infection", "value": 945}, {"measurement": "Parasites Detected, Average", "setting": "C. parvum [5]; C1 at EC90, 6 h post-infection", "value": 2336}, {"measurement": "Parasites Detected, Average", "setting": "C. parvum [5]; C1 at EC90, 9.5 h post-infection", "value": 2363}, {"measurement": "Parasites Detected, Average", "setting": "C. parvum [5]; C1 at EC90, 12 h post-infection", "value": 2052}, {"measurement": "Parasites Detected, Average", "setting": "C. parvum [5]; C1 at EC90, 13.5 h post-infection", "value": 2149}, {"measurement": "Parasites Detected, Average", "setting": "C. parvum [5]; C1 at EC90, 15 h post-infection", "value": 1056}, {"measurement": "Parasites Detected, Average", "setting": "C. parvum [5]; C1 at EC90, 18 h post-infection", "value": 1258}, {"measurement": "Parasites Detected, Average", "setting": "C. parvum [5]; C1 at EC90, 19.5 h post-infection", "value": 2054}, {"measurement": "Parasites Detected, Average", "setting": "C. parvum [5]; C1 at EC90, 22.5 h post-infection", "value": 2003}]}, {"smiles": "CCOc1ccc2cc(-c3nn(CC4CCN(C)CC4)c4ncnc(N)c34)ccc2c1", "note": "[BKI-1294]", "values": [{"measurement": "anticryptosporidial activity in SCID beige mice", "setting": "Cryptosporidium [6]", "value": "previously demonstrated anticryptosporidial activity"}]}]}
